# Test results published in ChEMBL document CHEMBL1201862, “PubChem BioAssay data set” (2004).
#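 Exposure lasted 48 hours, with cells grown in 96-well plates and compounds tested at five concentrations. GI50 marks 50% less growth.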 Activity calls are given as the source filed them. Cut-off read from the data, not from the text of the source: active = GI50 up to about 1.1 µM and inactive = higher.
# Key:
# Assay in all cases: NCI tumour cell line growth inhibition, 48 h
# OVCAR-4 = tested on: OVCAR-4
# RPMI-8226 = tested on: RPMI-8226
# ACHN = tested on: ACHN
# UO-31 = tested on: UO-31
# MCF7 = tested on: MCF7
# DU-145 = tested on: DU-145
# CCRF-CEM = tested on: CCRF-CEM
# SNB-75 = tested on: SNB-75
# EKVX = tested on: EKVX
# SK-MEL-28 = tested on: SK-MEL-28
# SW-620 = tested on: SW-620
# TK-10 = tested on: TK-10
# SK-MEL-5 = tested on: SK-MEL-5
# K562 = tested on: K562
# NCI-H23 = tested on: NCI-H23
# PC-3 = tested on: PC-3
# HCC 2998 = tested on: HCC 2998
# NCI-H226 = tested on: NCI-H226
Structure (SMILES),GI50 (OVCAR-4),GI50 (RPMI-8226),GI50 (ACHN),GI50 (UO-31),GI50 (MCF7),GI50 (DU-145),GI50 (CCRF-CEM),GI50 (SNB-75),GI50 (EKVX),GI50 (SK-MEL-28),GI50 (SW-620),GI50 (TK-10),GI50 (SK-MEL-5),GI50 (K562),GI50 (NCI-H23),GI50 (PC-3),GI50 (HCC 2998),GI50 (NCI-H226)
COC(=O)c1c2c(cc3c1CC1(Cc4cc5c(c(C=O)c4C1)CCC5)C3)CCC2 (stereo unspecified),> 100 µM (inactive),55.1 µM (inactive),32.9 µM (inactive),25.1 µM (inactive),42 µM (inactive),38.1 µM (inactive),13.4 µM (inactive),> 100 µM (inactive),62.1 µM (inactive),52.5 µM (inactive),53.2 µM (inactive),98.4 µM (inactive),16 µM (inactive),13.4 µM (inactive),47.8 µM (inactive),30.8 µM (inactive),24.7 µM (inactive),–
COc1cc2cc(C(=O)N3CC(CCl)c4c3cc(NCCN)c3ccccc43)[nH]c2c(OC)c1OC (stereo unspecified),0.0116 µM (active),< 0.01 µM (active),< 0.01 µM (active),< 0.01 µM (active),< 0.01 µM (active),< 0.01 µM (active),–,0.0102 µM (active),< 0.0126 µM (active),0.0134 µM (active),< 0.01 µM (active),< 0.01 µM (active),< 0.01 µM (active),< 0.01 µM (active),< 0.01 µM (active),< 0.01 µM (active),< 0.01 µM (active),0.0117 µM (active)
CSc1nc2cc(S(=O)(=O)N3CCCCC3)ccc2s1,> 100 µM (inactive),> 100 µM (inactive),> 100 µM (inactive),> 100 µM (inactive),> 100 µM (inactive),> 100 µM (inactive),> 100 µM (inactive),61.4 µM (inactive),41.3 µM (inactive),> 100 µM (inactive),> 100 µM (inactive),> 100 µM (inactive),> 100 µM (inactive),> 100 µM (inactive),> 100 µM (inactive),> 100 µM (inactive),–,> 100 µM (inactive)
CC(C)(C)C(=O)c1c(O)c2ccccc2c2ccccc2c1=O,62.1 µM (inactive),–,> 100 µM (inactive),33.2 µM (inactive),> 100 µM (inactive),> 100 µM (inactive),> 100 µM (inactive),30.9 µM (inactive),> 100 µM (inactive),58.7 µM (inactive),> 100 µM (inactive),97.5 µM (inactive),> 100 µM (inactive),–,41 µM (inactive),> 100 µM (inactive),–,49.4 µM (inactive)
CC(=O)/C(=C\c1ccc(Cl)c(Cl)c1)C(=O)C(C)CN(C)C (stereo unspecified),–,1.32 µM (inactive),5.24 µM (inactive),4.01 µM (inactive),3.61 µM (inactive),4.43 µM (inactive),< 0.01 µM (active),–,14.2 µM (inactive),6.89 µM (inactive),2.69 µM (inactive),1.94 µM (inactive),11.9 µM (inactive),–,13.4 µM (inactive),4.62 µM (inactive),2.39 µM (inactive),2.39 µM (inactive)
CCn1c(=O)c2c3cc(OC(C)=O)ccc3oc2c2ccc(OC(C)=O)cc21,36.9 µM (inactive),–,24.8 µM (inactive),26.6 µM (inactive),35 µM (inactive),36.1 µM (inactive),17.2 µM (inactive),2.69 µM (inactive),21 µM (inactive),49 µM (inactive),38.4 µM (inactive),29.5 µM (inactive),33 µM (inactive),33.8 µM (inactive),37.9 µM (inactive),33 µM (inactive),23.4 µM (inactive),34.4 µM (inactive)
CCOC(=O)C1(C#N)C(C#N)(C#N)C1(C#N)C#N,> 100 µM (inactive),> 100 µM (inactive),> 100 µM (inactive),> 100 µM (inactive),> 100 µM (inactive),> 100 µM (inactive),> 100 µM (inactive),–,> 100 µM (inactive),> 100 µM (inactive),> 100 µM (inactive),> 100 µM (inactive),> 100 µM (inactive),> 100 µM (inactive),> 100 µM (inactive),> 100 µM (inactive),> 100 µM (inactive),> 100 µM (inactive)
Clc1ccccc1C(Nc1ncccn1)Nc1ncccn1,> 100 µM (inactive),> 100 µM (inactive),> 100 µM (inactive),> 100 µM (inactive),> 100 µM (inactive),> 100 µM (inactive),–,47 µM (inactive),> 100 µM (inactive),> 100 µM (inactive),> 100 µM (inactive),> 100 µM (inactive),> 100 µM (inactive),> 100 µM (inactive),> 100 µM (inactive),> 100 µM (inactive),> 100 µM (inactive),> 100 µM (inactive)
Clc1ccc(/C=C/c2nc(-c3ccc(Cl)cc3)cn3c2nc2ccccc23)cc1,> 100 µM (inactive),> 100 µM (inactive),> 100 µM (inactive),> 100 µM (inactive),50.5 µM (inactive),> 100 µM (inactive),> 100 µM (inactive),–,> 100 µM (inactive),> 100 µM (inactive),> 100 µM (inactive),> 100 µM (inactive),> 100 µM (inactive),> 100 µM (inactive),> 100 µM (inactive),> 100 µM (inactive),> 100 µM (inactive),> 100 µM (inactive)
CC(=O)OCC12C(=O)C[C@@H](C)C3(CC(c4ccoc4)OC3=O)C1CCC(OC(C)=O)C21CO1 (stereo partly specified),> 100 µM (inactive),> 100 µM (inactive),> 100 µM (inactive),> 100 µM (inactive),> 100 µM (inactive),> 100 µM (inactive),–,> 100 µM (inactive),–,> 100 µM (inactive),> 100 µM (inactive),> 100 µM (inactive),> 100 µM (inactive),> 100 µM (inactive),> 100 µM (inactive),> 100 µM (inactive),> 100 µM (inactive),> 100 µM (inactive)
CN(NC(=O)/C(=C/c1ccc(Cl)cc1)NC(=O)c1ccccc1)c1cn[nH]c(=O)c1Cl,> 100 µM (inactive),17.4 µM (inactive),> 100 µM (inactive),> 100 µM (inactive),> 100 µM (inactive),> 100 µM (inactive),30 µM (inactive),59 µM (inactive),68.5 µM (inactive),> 100 µM (inactive),> 100 µM (inactive),> 100 µM (inactive),73.5 µM (inactive),> 100 µM (inactive),> 100 µM (inactive),> 100 µM (inactive),–,31.1 µM (inactive)
S=C(Nc1ccc2cn[nH]c2c1)Nc1ccc2cn[nH]c2c1,> 100 µM (inactive),38 µM (inactive),51.8 µM (inactive),> 100 µM (inactive),82 µM (inactive),> 100 µM (inactive),–,53 µM (inactive),54 µM (inactive),> 100 µM (inactive),> 100 µM (inactive),48.1 µM (inactive),45.1 µM (inactive),61.7 µM (inactive),41.6 µM (inactive),48.5 µM (inactive),60.8 µM (inactive),44.1 µM (inactive)
CC1(C)[C@@H](Cn2cnc3c(N)ncnc32)CC[C@@]1(C)CO,> 100 µM (inactive),–,81.5 µM (inactive),81.1 µM (inactive),74.1 µM (inactive),> 100 µM (inactive),51.9 µM (inactive),> 100 µM (inactive),> 100 µM (inactive),> 100 µM (inactive),82.8 µM (inactive),> 100 µM (inactive),60.7 µM (inactive),17.3 µM (inactive),55 µM (inactive),66.2 µM (inactive),53 µM (inactive),40.3 µM (inactive)
COc1ccc(OC)c2sc(N3C(=O)/C(=C/c4ccc(N(C)C)cc4)N=C3c3ccccc3)nc12,> 100 µM (inactive),11 µM (inactive),50.5 µM (inactive),55 µM (inactive),22.3 µM (inactive),> 100 µM (inactive),6.04 µM (inactive),80.5 µM (inactive),> 100 µM (inactive),> 100 µM (inactive),49.8 µM (inactive),> 100 µM (inactive),39.2 µM (inactive),79.8 µM (inactive),–,33 µM (inactive),> 100 µM (inactive),–
O=c1cnn(C2OC(CO)C(O)C(F)C2O)c(=O)[nH]1 (stereo unspecified),> 100 µM (inactive),> 100 µM (inactive),> 100 µM (inactive),> 100 µM (inactive),> 100 µM (inactive),> 100 µM (inactive),> 100 µM (inactive),–,> 100 µM (inactive),> 100 µM (inactive),> 100 µM (inactive),> 100 µM (inactive),> 100 µM (inactive),> 100 µM (inactive),> 100 µM (inactive),> 100 µM (inactive),> 100 µM (inactive),> 100 µM (inactive)
O=S1(=O)N=C(SCc2c[nH]c3ccccc23)N(c2ccccc2)c2ccncc21,> 100 µM (inactive),–,65.3 µM (inactive),18.5 µM (inactive),42.5 µM (inactive),35.2 µM (inactive),41.4 µM (inactive),21.5 µM (inactive),> 100 µM (inactive),> 100 µM (inactive),> 100 µM (inactive),35.6 µM (inactive),> 100 µM (inactive),> 100 µM (inactive),> 100 µM (inactive),66.7 µM (inactive),> 100 µM (inactive),97.7 µM (inactive)
